From ChEMBL document CHEMBL2094260, “Malaria Box Tuberculosis Screening Data” come the findings set out here.

Assay [1] has as its system Mycobacterium tuberculosis. Nature of the assay: MMV: Screen against Mtb, single point, replicating, at 25uM. The assay is classed as functional.
Assay [2] concerns Mycobacterium tuberculosis. Nature of the assay: MMV: Screen against Mtb, single point, non replicating, at 25uM. The assay is classed as functional.

Molecules are shown by their SMILES.

For `COc1ccc2c(c1)C1(Nc3ccccc3-c3nc4ccccc4n31)C(=O)N2` (stereo not drawn), the inhibition (commonly the drop in the measured response relative to a control, in per cent) at 25 µM in assay [1] is 0.517%; in assay [2], 10.8%.

As to `COc1cccc(Cn2c(Oc3ccccc3)nc3c2c(=O)n(C)c(=O)n3C)c1`, the inhibition at 25 µM is 3.71% in assay [1] and -1.06% in assay [2].

Consider `CCOc1c(Cl)cc(CNCC(O)c2ccccc2)cc1OC` (stereo not drawn), for which the inhibition at 25 µM in assay [1] is 11.9%; in assay [2] it was 6.97%.

For the compound `OC(CNCC1CCCO1)Cn1c2ccc(Cl)cc2c2cc(Cl)ccc21` (stereo not drawn), the inhibition at 25 µM is 1.28% in assay [1] and 20.4% in assay [2].

For `CCOc1ccccc1CN1CCc2nc3cc(C(C)(C)C)nn3c(O)c2C1`, the inhibition at 25 µM turned out to be 13.9% in assay [1] and 1.04% in assay [2].

Regarding `CN1CCN(c2ncnc3c2[nH]c2ccc(Cl)cc23)CC1`, the inhibition at 25 µM in assay [1] amounted to 23.9%; in assay [2], 1.91%.

As to `CC1(c2ccccc2)Nc2ccccc2-c2nc3ccccc3n21` (stereo not drawn), the inhibition at 25 µM came out at 8.87% in assay [1] and 12% in assay [2].

Take `COc1cccc(C2(C)Nc3ccccc3-c3nc4ccccc4n32)c1` (stereo not drawn): the inhibition at 25 µM in assay [1] turned out to be 14.9%; in assay [2], 8.19%.

With `CC(C)CNC(=O)c1c(N)n(CCc2ccccc2F)c2nc3ccccc3nc12`, the inhibition at 25 µM was determined as 14.8% in assay [1] and 2.78% in assay [2].

As to `O=C1c2ccccc2-c2nnc(-c3ccc(Br)cc3)cc21`, the values for the inhibition at 25 µM in assay [1] and in assay [2] were 9.33% and 1.49%, respectively.

Consider `CN(C)CCNc1cc(-c2ccccc2)nc2ccccc12`, for which the inhibition at 25 µM was 6.89% in assay [1] and 6.45% in assay [2].

Consider `CCOC(=O)C1=C(C)N=c2sc(=Cc3cc(Cl)ccc3O)c(=O)n2C1c1ccc(OC)cc1` (stereo not drawn), for which the inhibition at 25 µM was -0.235% in assay [1] and 13.4% in assay [2].

For `COc1ccc2nc(C)cc(Nc3ccc(Cl)cc3)c2c1`, the inhibition at 25 µM in assay [1] amounted to 41.2%; in assay [2], 7.32%.

On to `CCC(O)c1ccc(Br)cc1NC(=O)c1cccc(Cl)c1` (stereo not drawn), for which the results for the inhibition at 25 µM in assay [1] and in assay [2] were 13.9% and 14.6%, respectively.

On to `COc1ccc2nc(C)cc(Nc3cccc(O)c3)c2c1`, for which the inhibition at 25 µM in assay [1] is 7.96%; in assay [2], 8.19%.

Consider `CN(C)CCCNCc1ccc(-c2ccc(F)c(Cl)c2)o1`, for which the inhibition at 25 µM turned out to be 23.9% in assay [1] and 1.91% in assay [2].

Consider `O=c1nc(C=Cc2ccc(Br)cc2)oc2ccccc12`, for which the values for the inhibition at 25 µM in assay [1] and in assay [2] were 20.6% and -13.3%, respectively.

Regarding `COc1ccc2nc(N)nc(C)c2c1`, the inhibition at 25 µM in assay [1] was 5.53%; in assay [2], -10.5%.

With `Cc1sc2ncnc(Sc3nc4ccccc4[nH]3)c2c1C`, the inhibition at 25 µM turned out to be 14.9% in assay [1] and 22.5% in assay [2].

On to `COc1ccc(C(=O)NC(c2ccc(Cl)cc2Cl)c2cc(Cl)c3cccnc3c2O)cc1` (stereo not drawn), for which the inhibition at 25 µM in assay [1] was 3.06%; in assay [2] it was -4.19%.

For `CCC(=O)Nc1nnc(Cc2ccc(OC)c(OC)c2)s1`, the inhibition at 25 µM was -1.3% in assay [1] and 1.56% in assay [2].

Turning to `O=C(NCCCN1CCC(N2CCCCC2)CC1)C1=Cc2cc(Br)ccc2OC1`, the values for the inhibition at 25 µM in assay [1] and in assay [2] were 14.7% and 6.82%, respectively.

On to `CC(=O)Nc1nnc(SCc2c(C)cc(C(C)(C)C)cc2C)s1`, for which the values for the inhibition at 25 µM in assay [1] and in assay [2] were 3.55% and 19.7%, respectively.

As to `O=C(Nc1ccc(CN2CCOCC2)cc1)c1ccc(-c2cc(Cl)ccc2Cl)o1`, the inhibition at 25 µM in assay [1] was 17.1%; in assay [2] it was 14.5%.

For `Cc1ccc(OCCCCCCNCCO)c(C)c1`, the results for the inhibition at 25 µM in assay [1] and in assay [2] were 17.5% and 13%, respectively.

With `COc1cccc(C(=O)Nc2ccc(-c3nc4ccccc4[nH]3)cc2)c1`, the results for the inhibition at 25 µM in assay [1] and in assay [2] were 7.2% and 0.862%, respectively.

With `COCCn1c(C)nc2ccccc2c1=O`, the inhibition at 25 µM in assay [1] amounted to 6.59%; in assay [2], 13.6%.

In the case of `O=C(Nc1cccc(-c2nc3ccccc3[nH]2)c1)c1cccc(NC(=O)c2ccco2)c1`, the results for the inhibition at 25 µM in assay [1] and in assay [2] were 21.2% and 46.1%, respectively.

Regarding `O=C(NC1CCN(Cc2ccccc2)CC1)c1cc(-c2cccnc2)nc2ccc(Cl)cc12`, the results for the inhibition at 25 µM in assay [1] and in assay [2] were 14.3% and 18%, respectively.

In the case of `CCN(Cc1ccccc1)C1CCN(Cc2cc(Br)ccc2O)CC1`, the inhibition at 25 µM came out at 16.8% in assay [1] and 12.7% in assay [2].

As for `CCOC(=O)c1cnc2ccc(Cl)cc2c1NCCCN(C)C`, the inhibition at 25 µM in assay [1] is 2.59%; in assay [2], -0.993%.

For `CCOc1ccccc1NC(=O)CN1CCN(C(=O)c2ccco2)CC1`, the results for the inhibition at 25 µM in assay [1] and in assay [2] were 23.1% and -0.186%, respectively.

In the case of `O=C1c2ccccc2C2=Nc3ccccc3SC(c3cccc(F)c3)C12` (stereo not drawn), the inhibition at 25 µM was 7.45% in assay [1] and -5.43% in assay [2].

`Cc1ccccc1OCCSc1nc2ccc(NC(=O)c3ccccc3)cc2s1`: the results for the inhibition at 25 µM in assay [1] and in assay [2] were 22% and 9.66%, respectively.

Turning to `COc1ccc(-c2nonc2NC(=O)c2cccc(Cl)c2)cc1OC`, the inhibition at 25 µM in assay [1] was determined as 9.93%; in assay [2] it was 15.7%.

Take `Cc1cc(NC(=O)c2ccc(-c3ccccc3)cc2)no1`: the figures for the inhibition at 25 µM in assay [1] and in assay [2] were 8.72% and 13.8%, respectively.

Consider `CCOc1cc2c(cc1OCC)C(c1cc(C)c(O)c(C)c1)NCC2` (stereo not drawn), for which the inhibition at 25 µM in assay [1] came to 10.8%; in assay [2], 11.5%.

Regarding `O=C1CC(O)(C(F)(F)C(F)(F)F)Oc2ccccc21` (stereo not drawn), the inhibition at 25 µM in assay [1] turned out to be 13%; in assay [2], 39.1%.

For the compound `COc1cc(SC)ccc1C(=O)N1CCCC(C)C1` (stereo not drawn), the inhibition at 25 µM was found to be 17.4% in assay [1] and 8.89% in assay [2].

Turning to `CC(C)c1ccc(CNCC(O)c2ccccc2)cc1` (stereo not drawn), the values for the inhibition at 25 µM in assay [1] and in assay [2] were 30.9% and 11.7%, respectively.

Take `CC(C)(C)c1ccc(C(=O)Nc2c3c(nn2-c2cccc(Cl)c2)CSC3)cc1`: the inhibition at 25 µM is -1.02% in assay [1] and -4.72% in assay [2].

With `CCOc1cc2c(cc1OCC)C(c1cc(Cl)c(O)c(OCC)c1)NCC2` (stereo not drawn), the inhibition at 25 µM in assay [1] was -12.2%; in assay [2], -14%.

Consider `COc1ccc(N2CCN(C(CNC(=O)CC(C)(C)C)c3ccc4c(c3)OCO4)CC2)cc1` (stereo not drawn), for which the inhibition at 25 µM in assay [1] is 0.0784%; in assay [2], -8.45%.

Regarding `Oc1ccc(Br)cc1CN1CCN(Cc2cccc(F)c2)CC1`, the inhibition at 25 µM in assay [1] was 28.5%; in assay [2], -1.58%.

`CCOC(=O)C1(Cc2ccccc2)CCN(Cc2cccc(OC)c2O)CC1`: the inhibition at 25 µM was determined as 9.17% in assay [1] and 8.77% in assay [2].

Consider `CC(C)(C)c1ccc2c(c1)CN(Cc1ccc(Cl)cc1)CO2`, for which the inhibition at 25 µM in assay [1] stood at 48.4%; in assay [2], 41.2%.

Consider `O=c1nc(C=Cc2ccc(Cl)cc2)oc2ccccc12`, for which the results for the inhibition at 25 µM in assay [1] and in assay [2] were 46.8% and 7.84%, respectively.

For the compound `O=C(NCc1ccco1)C1CCN(S(=O)(=O)c2ccc(Br)cc2)CC1`, the inhibition at 25 µM was 13% in assay [1] and 10.5% in assay [2].

With `CN(C)c1ccc(N2C(N)=NC(N)=NC2(C)C)cc1`, the inhibition at 25 µM is 2.64% in assay [1] and 1.21% in assay [2].

On to `COc1ccc(OC)c(C2C3=C(CC(C)(C)CC3=O)N(c3ccc(Cl)c(Cl)c3)C3=C2C(=O)CC(C)(C)C3)c1`, for which the inhibition at 25 µM in assay [1] turned out to be 5.56%; in assay [2], 7.7%.

With `COc1ccc(CN2CCN(Cc3ccccc3)CC2)c(O)c1`, the inhibition at 25 µM in assay [1] is 0.392%; in assay [2], -5.78%.

In the case of `COc1cc2c(cc1OC)C1=NNC(=O)C1=NC(C)(C)C2`, the inhibition at 25 µM in assay [1] stood at 11.3%; in assay [2], 26.7%.

With `Oc1c(CN2CCN(c3ccccc3F)CC2)cc(Br)c2cccnc12`, the values for the inhibition at 25 µM in assay [1] and in assay [2] were 21.8% and 30.2%, respectively.

`Oc1c2c(nc3cc(-c4ccccc4)nn13)CCCC2`: the inhibition at 25 µM in assay [1] was 19.8%; in assay [2], 10.3%.

With `CCCCc1c(C)nc2c(OC)cccc2c1O`, the inhibition at 25 µM in assay [1] amounted to 26.3%; in assay [2] it was 6.62%.

For `OC1CCCCC1C1(NC(=S)Nc2ccccc2)CCCCC1` (stereo not drawn), the inhibition at 25 µM amounted to 7.76% in assay [1] and 13.9% in assay [2].

For `OC1=C2C(=Nc3ccccc3SC2c2ccc(Br)cc2)c2ccccc21` (stereo not drawn), the inhibition at 25 µM in assay [1] was -4.78%; in assay [2], 0.604%.

As to `COc1ccc(C)c2sc(N(Cc3cccnc3)C(=O)c3ccc(C#N)cc3)nc12`, the inhibition at 25 µM was determined as 9.48% in assay [1] and 23.9% in assay [2].

Take `CCOC(=O)C1CCN(C(=O)CN2C(=O)c3ccccc3C2c2c[nH]c3ccccc23)CC1` (stereo not drawn): the figures for the inhibition at 25 µM in assay [1] and in assay [2] were 4.16% and 8.89%, respectively.

As for `CCOc1ccc(CCNC(=O)c2cccs2)cc1OCC`, the inhibition at 25 µM in assay [1] was 30%; in assay [2], 15%.

For the compound `COc1ccc(C(=O)C2CC2c2ccc(Cl)cc2)cc1` (stereo not drawn), the inhibition at 25 µM in assay [1] was 17.5%; in assay [2], -5.07%.

In the case of `Cc1cc(N2CCN(C3CCCC3)CC2)n2c(nc3ccccc32)c1C#N`, the figures for the inhibition at 25 µM in assay [1] and in assay [2] were 7.81% and 11.5%, respectively.

`CCCCOc1ccc(C(=O)Nc2cc(C)on2)cc1`: the inhibition at 25 µM came out at 23.1% in assay [1] and 15% in assay [2].

As to `CCc1ccc(Nc2cc(C)nc3nc(C)nn23)cc1`, the inhibition at 25 µM is 11.4% in assay [1] and 9.06% in assay [2].

Regarding `CCN(CC)S(=O)(=O)c1ccc(-c2csc(Nc3ccc(C)c(C)c3)n2)cc1`, the inhibition at 25 µM in assay [1] was 6.89%; in assay [2], 14.1%.

In the case of `CCN1CCN(c2c(C(=O)c3ccccc3)cnc3cc(OC)c(OC)cc23)CC1`, the results for the inhibition at 25 µM in assay [1] and in assay [2] were 5.25% and 1.14%, respectively.

With `Cc1c(C)n(CC(O)CNC2CCCCC2C)c2ccccc12` (stereo not drawn), the inhibition at 25 µM amounted to 24.7% in assay [1] and 7.84% in assay [2].

Turning to `Cc1ccc(S(=O)(=O)c2c(COC(=O)c3cccc(C)c3)c(-c3ccccc3)nn2C)cc1`, the inhibition at 25 µM in assay [1] worked out at 9.01%; in assay [2], 8.24%.

For `CCCCN(CCCC)S(=O)(=O)c1ccc(NC(=O)c2ccco2)cc1`, the values for the inhibition at 25 µM in assay [1] and in assay [2] were 8.56% and 6.97%, respectively.
